In the supplement of paper PMC10307832:

How the values were obtained:
Test in all cases: relative viability (nuclei count vs DMSO), 5 days (fraction); higher = more cells survive
COR-L 105 = system: COR-L 105
In short: (§1)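 Dosing by pin tool came one day after lung cancer cell lines were seeded in 1536-well plates, using either one drug or a fixed anchor-drug dose plus five library-drug doses (not always all listed) in √10 steps. After 5 days, nuclei were counted on 4× images. Relative viability is treated-well nuclei count divided by vehicle-well nuclei count, and values are medians of duplicate plates.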

NCI-H650 = system: NCI-H650
In short: as §1

NCI-H1993 = system: NCI-H1993
In short: as §1

LXF-289 = system: LXF-289
In short: as §1

H3255 = system: H3255
In short: as §1

NCI-H2087 = system: NCI-H2087
In short: as §1

HCC-78 = system: HCC-78
In short: as §1

NCI-H2126 = system: NCI-H2126
In short: as §1

EMC-BAC-2 = system: EMC-BAC-2
In short: as §1

HOP-62 = system: HOP-62
In short: as §1

SK-MES-1 = system: SK-MES-1
In short: as §1

NCI-H1563 = system: NCI-H1563
In short: as §1

201T = system: 201T
In short: as §1

LC-2-ad = system: LC-2-ad
In short: as §1

UMC-11 = system: UMC-11
In short: as §1

BEN = system: BEN
In short: as §1

NCI-H1395 = system: NCI-H1395
In short: as §1

RERF-LC-KJ = system: RERF-LC-KJ
In short: as §1

HARA = system: HARA
In short: as §1

LU99A = system: LU99A
In short: as §1

LOU-NH91 = system: LOU-NH91
In short: as §1

## CCNC(=O)c1noc(-c2cc(C(C)C)c(O)cc2O)c1-c1ccc(CN2CCOCC2)cc1 [Luminespib] + C[C@]1(O)C[C@@H](c2nc(-c3ccc4ccc(-c5ccccc5)nc4c3)c3c(N)nccn32)C1 [Linsitinib] (partner 1 µM)
COR-L 105; first compound 0.002 µM
  relative viability: 0.843
COR-L 105; first compound 0.006325 µM
  relative viability: 0.811
COR-L 105; first compound 0.02 µM
  relative viability: 0.991
COR-L 105; first compound 0.06325 µM
  relative viability: 0.245
COR-L 105; first compound 0.2 µM
  relative viability: 0.207
NCI-H650; first compound 0.002 µM
  relative viability: 0.917
NCI-H650; first compound 0.006325 µM
  relative viability: 0.888
NCI-H650; first compound 0.02 µM
  relative viability: 0.497
NCI-H650; first compound 0.06325 µM
  relative viability: 0.0891
NCI-H650; first compound 0.2 µM
  relative viability: 0.117
NCI-H1993; first compound 0.002 µM
  relative viability: 0.829
NCI-H1993; first compound 0.006325 µM
  relative viability: 0.735
NCI-H1993; first compound 0.02 µM
  relative viability: 0.678
NCI-H1993; first compound 0.06325 µM
  relative viability: 0.534
NCI-H1993; first compound 0.2 µM
  relative viability: 0.576
LXF-289; first compound 0.002 µM
  relative viability: 0.952
LXF-289; first compound 0.006325 µM
  relative viability: 0.879
LXF-289; first compound 0.02 µM
  relative viability: 1.12
LXF-289; first compound 0.06325 µM
  relative viability: 0.711
LXF-289; first compound 0.2 µM
  relative viability: 0.151
H3255; first compound 0.002 µM
  relative viability: 0.929
H3255; first compound 0.006325 µM
  relative viability: 0.868
H3255; first compound 0.02 µM
  relative viability: 0.65
H3255; first compound 0.06325 µM
  relative viability: 0.885
H3255; first compound 0.2 µM
  relative viability: 0.228
NCI-H2087; first compound 0.002 µM
  relative viability: 1.01
NCI-H2087; first compound 0.006325 µM
  relative viability: 0.714
NCI-H2087; first compound 0.02 µM
  relative viability: 1.08
NCI-H2087; first compound 0.06325 µM
  relative viability: 0.263
NCI-H2087; first compound 0.2 µM
  relative viability: 0.204
HCC-78; first compound 0.002 µM
  relative viability: 0.485
HCC-78; first compound 0.06325 µM
  relative viability: 0.76
HCC-78; first compound 0.2 µM
  relative viability: 0.251
NCI-H2126; first compound 0.002 µM
  relative viability: 0.686
NCI-H2126; first compound 0.006325 µM
  relative viability: 0.652
NCI-H2126; first compound 0.02 µM
  relative viability: 0.536
NCI-H2126; first compound 0.06325 µM
  relative viability: 0.761
NCI-H2126; first compound 0.2 µM
  relative viability: 0.741
EMC-BAC-2; first compound 0.002 µM
  relative viability: 0.793
EMC-BAC-2; first compound 0.006325 µM
  relative viability: 0.783
EMC-BAC-2; first compound 0.02 µM
  relative viability: 0.665
EMC-BAC-2; first compound 0.06325 µM
  relative viability: 0.788
EMC-BAC-2; first compound 0.2 µM
  relative viability: 0.901
HOP-62; first compound 0.002 µM
  relative viability: 1.07
HOP-62; first compound 0.006325 µM
  relative viability: 0.958
HOP-62; first compound 0.02 µM
  relative viability: 0.945
HOP-62; first compound 0.06325 µM
  relative viability: 1.12
HOP-62; first compound 0.2 µM
  relative viability: 0.934
SK-MES-1; first compound 0.002 µM
  relative viability: 1
SK-MES-1; first compound 0.006325 µM
  relative viability: 0.893
SK-MES-1; first compound 0.02 µM
  relative viability: 1.13
SK-MES-1; first compound 0.06325 µM
  relative viability: 0.916
SK-MES-1; first compound 0.2 µM
  relative viability: 0.164
NCI-H1563; first compound 0.002 µM
  relative viability: 1.34
NCI-H1563; first compound 0.006325 µM
  relative viability: 1.13
NCI-H1563; first compound 0.02 µM
  relative viability: 1.11
NCI-H1563; first compound 0.06325 µM
  relative viability: 0.535
NCI-H1563; first compound 0.2 µM
  relative viability: 0.542
201T; first compound 0.002 µM
  relative viability: 1.03
201T; first compound 0.006325 µM
  relative viability: 0.988
201T; first compound 0.02 µM
  relative viability: 0.872
201T; first compound 0.06325 µM
  relative viability: 1.08
201T; first compound 0.2 µM
  relative viability: 1.01
LC-2-ad; first compound 0.002 µM
  relative viability: 0.887
LC-2-ad; first compound 0.006325 µM
  relative viability: 0.806
LC-2-ad; first compound 0.02 µM
  relative viability: 0.808
LC-2-ad; first compound 0.06325 µM
  relative viability: 0.165
LC-2-ad; first compound 0.2 µM
  relative viability: 0.129
UMC-11; first compound 0.002 µM
  relative viability: 0.997
UMC-11; first compound 0.006325 µM
  relative viability: 0.993
UMC-11; first compound 0.02 µM
  relative viability: 0.962
UMC-11; first compound 0.06325 µM
  relative viability: 0.648
UMC-11; first compound 0.2 µM
  relative viability: 0.181
BEN; first compound 0.002 µM
  relative viability: 0.955
BEN; first compound 0.006325 µM
  relative viability: 0.892
BEN; first compound 0.02 µM
  relative viability: 0.427
BEN; first compound 0.06325 µM
  relative viability: 0.627
BEN; first compound 0.2 µM
  relative viability: 0.252
NCI-H1395; first compound 0.002 µM
  relative viability: 1.06
NCI-H1395; first compound 0.006325 µM
  relative viability: 1.02
NCI-H1395; first compound 0.02 µM
  relative viability: 0.759
NCI-H1395; first compound 0.06325 µM
  relative viability: 0.772
NCI-H1395; first compound 0.2 µM
  relative viability: 0.326
RERF-LC-KJ; first compound 0.002 µM
  relative viability: 0.9
RERF-LC-KJ; first compound 0.006325 µM
  relative viability: 0.846
RERF-LC-KJ; first compound 0.02 µM
  relative viability: 0.976
RERF-LC-KJ; first compound 0.06325 µM
  relative viability: 0.968
RERF-LC-KJ; first compound 0.2 µM
  relative viability: 0.366
HARA; first compound 0.002 µM
  relative viability: 0.85
HARA; first compound 0.006325 µM
  relative viability: 0.797
HARA; first compound 0.02 µM
  relative viability: 1.12
HARA; first compound 0.06325 µM
  relative viability: 0.738
HARA; first compound 0.2 µM
  relative viability: 0.0694
LU99A; first compound 0.002 µM
  relative viability: 0.574
LU99A; first compound 0.006325 µM
  relative viability: 0.486
LU99A; first compound 0.02 µM
  relative viability: 0.357
LU99A; first compound 0.06325 µM
  relative viability: 0.172
LU99A; first compound 0.2 µM
  relative viability: 0.144
LOU-NH91; first compound 0.002 µM
  relative viability: 0.913
LOU-NH91; first compound 0.006325 µM
  relative viability: 0.923
LOU-NH91; first compound 0.02 µM
  relative viability: 0.649
LOU-NH91; first compound 0.06325 µM
  relative viability: 0.393
LOU-NH91; first compound 0.2 µM
  relative viability: 0.348
